Holding throughout (assay type): cell-based
Assay [1] deals with fusion mediated by gp120 of HIV-1 using CXCR4. The experiment in a line: gp120-mediated cell-cell fusion assay, target cells with CD4 and CXCR4 (colorimetric, OD 570 nm). From the text:
(§1) In order to evaluate on which step of the complex HIV-1 replication cycle the compound VII acts according to the present invention, a sophisticated method, schematized in FIG. 2, has been used, specifically only focusing on the entry step of HIV-1 in target cells.
(§2) Briefly, a colorimetric reaction is developed when two populations of properly engineered cells meet and in particular a donor, carrying on the surface the glycoprotein of HIV-1 gp120 and a target, together with the primary receptor CD4 and with one of the co-receptors, CXCR4 or CCR5. In this case there is a fusion of the cells and the polymerase T7 can pass from the donor cell to the target one in which it triggers the transcription of beta-galactosidase with subsequent protein translation. Thus the latter is able to perform its enzymatic action in the presence of the convenient substrate (CPRG, chlorophenol red-3-D galactopyranoside) developing a colorimetric reaction measured by detection of optical density (OD) at 570 nm.
(§3) In the first one, the target cells are mouse fibroblasts (3T3 in FIG. 3 A/B), on the contrary in the second one the target cells are human epithelial cells (HeLa, in FIG. 3 C/D). The graphs show the mean values of the culture triplicate with the standard deviation.

Assay [2] deals with fusion mediated by gp120 of HIV-1 using CCR5. The experiment in a line: gp120-mediated cell-cell fusion assay, target cells with CD4 and CCR5 (colorimetric, OD 570 nm). The note with it: target cells 3T3 mouse fibroblasts and HeLa human epithelial cells (FIG. 3 B/D).
Text: as §1, §2, §3

The subject of assay [3] is HIV-1 Bal (strain using CCR5). The experiment in a line: HIV-1 Bal replication in PHA-activated peripheral blood mononuclear cells (p24 in supernatant). As to conditions: PBMC. The procedure: (§4) The compound (VII) has been tested for its ability to modulate the viral replication of HIV-1, both of a strain using CXCR4 (IIIB) and a strain using CCR5 (Bal) as co-receptor, in addition to the primary receptor CD4.
(§5) For the in-vitro infections primary cells have been used, specifically peripheral blood mononuclear cells from healthy donors pre-activated for 48 hours through a mitogenic stimulus (phytohemagglutinin) to allow for the infection by HIV-1. The cells have been incubated with IIIB and Bal viruses in absence or in presence of scalar concentrations of compound (VII) for 30 minutes at 37° C., then they have been washed to remove the excess virus, plated in triplicate in culture microplates and the compound VII has been re-added to the wells, in the test concentrations. The control culture has been set up in presence of dimethylsulfoxyde (DMSO), the compound in which the compound VII has been dissolved, in order to more correctly evaluate a net effect of the compound. The viral replication has been evaluated by measuring the structural protein of HIV-1 p24 (expressed in ng/ml) by an immune-enzymatic test carried out on the culture supernatants harvested on days 4 and 7 post-infection.
(§6) The graphs show the mean values of the culture triplicate with the standard deviation on post-infection days 4 and 7.

Assay [4] deals with HIV-1 IIIB (strain using CXCR4). As to the kind of experiment: HIV-1 IIIB replication in PHA-activated peripheral blood mononuclear cells (p24 in supernatant). As to conditions: for inhibition of replication of HIV-1 IIIB: PBMC. The procedure: as §4, §5, §6
[5] abbreviates: 0.1 μM, p24 on days 4 and 7 post-infection (FIG. 1C/D).
The mark [6] stands for this setting: 1 μM, p24 on days 4 and 7 post-infection (FIG. 1C/D).
Where [7] appears, read: 30, 10 and 3 μM, p24 on days 4 and 7 post-infection (FIG. 1A/B).

With `Cn1cc(NC(=O)c2cc3cc(NC(=O)Nc4ccc5c(c4)cc(C(=O)Nc4cc(C(=O)Nc6ccc7cc(S(=O)(=O)O)cc(S(=O)(=O)O)c7c6)n(C)c4)n5C)ccc3n2C)cc1C(=O)Nc1ccc2cc(S(=O)(=O)O)cc(S(=O)(=O)O)c2c1` [compound (VII)], the “relative potency in fusion inhibition, HIV-1 using CXCR4 versus HIV-1 using CCR5” value in assay [1] (comparison of CXCR4 (the latter) with CCR5) is recorded as “more potent against the latter”. The “inhibition of fusion mediated by gp120 of HIV-1 using CXCR4” value in assay [1] (target cells 3T3 mouse fibroblasts and HeLa human epithelial cells (FIG. 3 A/C)) was “able to inhibit, in a way depending on the concentration”. The “inhibition of fusion mediated by gp120 of HIV-1 using CCR5” value in assay [2] is “able to inhibit, in a way depending on the concentration”. Moreover, the “inhibition of replication of HIV-1 Bal” value in assay [3] (setting [5]) is “not more effective”; in assay [3] (setting [6]), “almost totally lost the inhibitory ability”; in assay [3] (setting [7]), “completely inhibited”. The results for the “inhibition of replication of HIV-1 IIIB” value in assay [4] (setting [5]), in assay [4] (setting [6]) and in assay [4] (setting [7]) were “not more effective”, “inhibited completely” and “completely inhibited”, respectively. For the same compound, the “relative effectiveness in replication inhibition, CXCR4-using versus CCR5-using virus” value in assay [4] (comparison of IIIB with Bal at 1 μM) was “higher effectiveness of the compound against viruses using the chemokine receptor CXCR4”.
